# Test results reported in patent publication US12024546B2, “Peptides and anti-cancer compositions including thereof” (GWANGJU INSTITUTE OF SCIENCE AND TECHNOLOGY, priority 2022, dated 2024).
# B1: dysadherin: purified recombinant His-tagged dysadherin protein, full-length (wild-type), from E. coli (protein)
# chain: QTLKDTTSSSSADSTIMDIQVPTRAPDAVYTELQPTSPTPTWPADETPQPQTQTQQLEGTDGPLVTDPETHKSTKAAHPTDDTTTLSERPSPSTDVQTDPQTLKPSGFHEDDPFFYDEHTLRKRGLLVAAVLFITGIIILTSGKCRQLSRLCRNRCR
# Tests used:
# HCT116 cells [1] = test: Boyden chamber assay (invasion), HCT116 cells overexpressing dysadherin; format: cell-based, human; settings: FAK inhibitor 3 μmol/L, 24-h incubation, serum-free media
# Procedure: (§1) FIGS. 16A-16G illustrate functional involvement of fibronectin/integrin/FAK axis in dysadherin-mediated protumor activity. (FIG. 16A) The number of viable cells was measured with an automated cell counter (Countess II, ThermoFisher Scientific, Waltham, MA, USA) at the indicated time points (n=3/group) in HCT116 cells overexpressing wildtype (full length) or mutant dysadherin. EV-transfected cells were used as controls. […] (FIG. 16B) To determine the effect of fibronectin and FAK signaling on cancer cell growth, dysadherin-OE or control cells were transfected with control siRNA (siCTRL) or siRNAs targeting fibronectin (siFN1). […] The relative cell numbers were determined by MTT assays (n=3/group). […] The black dotted line indicates initial wound area, and the blue line indicates the cell boundaries determined after a 48-h incubation in serum-free media. […] After a 24-h incubation, the cells that invaded through to the bottom of the membrane were fixed, stained with crystal violet, and counted under a phase-contrast microscope (n=3/group). […]
# The Transwell system (8 μm pore size, Corning) was employed for migration and invasion assays. […] After incubation for 24 h at 37° C., the cells that migrated or invaded the Matrigel through to the bottom of the insert membrane were fixed, stained with crystal violet, and counted under a phase-contrast microscope (Carl Zeiss, biological triplicates).
# [2] = tested on: dysadherin-OE HCT116 cells; test: Cell growth by MTT assay, dysadherin-OE HCT116 cells; format: cell-based, human; settings: VS-4718 3 μM, 36 h
# Procedure: (§2) FIGS. 16A-16G illustrate functional involvement of fibronectin/integrin/FAK axis in dysadherin-mediated protumor activity. (FIG. 16A) The number of viable cells was measured with an automated cell counter (Countess II, ThermoFisher Scientific, Waltham, MA, USA) at the indicated time points (n=3/group) in HCT116 cells overexpressing wildtype (full length) or mutant dysadherin. EV-transfected cells were used as controls. […] (FIG. 16B) To determine the effect of fibronectin and FAK signaling on cancer cell growth, dysadherin-OE or control cells were transfected with control siRNA (siCTRL) or siRNAs targeting fibronectin (siFN1). At 24 h after transfection, cells were detached, reseeded, and incubated for 12 h for cell attachment. Then cells were incubated for 36 h with or without FAK inhibitor treatment (VS-4718, 3 μM). The relative cell numbers were determined by MTT assays (n=3/group). […] Cells were seeded on fibronectin-coated culture plates with or without VS-4718, at 1 or 3 μM. […] The black dotted line indicates initial wound area, and the blue line indicates the cell boundaries determined after a 48-h incubation in serum-free media. […] After a 24-h incubation, the cells that invaded through to the bottom of the membrane were fixed, stained with crystal violet, and counted under a phase-contrast microscope (n=3/group). […]
# HCT116 cells [3] = test: Clonogenic assay (survival potential), HCT116 cells overexpressing dysadherin; format: cell-based, human; settings: VS-4718 3 μmol/L for 24 h, then clonogenic assay
# Procedure: as §1, with “(siFN1). At 24 h after transfection, cells were detached, reseeded, and incubated for 12 h for cell attachment.” for “(siFN1).”
# A clonogenic assay was performed as cells were seeded in 12-well plates (200 cells/well) and cultured for 14 days. The numbers of colonies greater than 50 μm in size were counted after staining with crystal violet (n=3/group).
# FAK = target: T1, FAK (Homo sapiens, UniProt Q05397); test: Immunoblot of FAK activation status (p-FAK); format: cell-based
# T1 construct: endogenous in cells; host or cells: Human CRC cells
# T1 sequence (Q05397 whole entry): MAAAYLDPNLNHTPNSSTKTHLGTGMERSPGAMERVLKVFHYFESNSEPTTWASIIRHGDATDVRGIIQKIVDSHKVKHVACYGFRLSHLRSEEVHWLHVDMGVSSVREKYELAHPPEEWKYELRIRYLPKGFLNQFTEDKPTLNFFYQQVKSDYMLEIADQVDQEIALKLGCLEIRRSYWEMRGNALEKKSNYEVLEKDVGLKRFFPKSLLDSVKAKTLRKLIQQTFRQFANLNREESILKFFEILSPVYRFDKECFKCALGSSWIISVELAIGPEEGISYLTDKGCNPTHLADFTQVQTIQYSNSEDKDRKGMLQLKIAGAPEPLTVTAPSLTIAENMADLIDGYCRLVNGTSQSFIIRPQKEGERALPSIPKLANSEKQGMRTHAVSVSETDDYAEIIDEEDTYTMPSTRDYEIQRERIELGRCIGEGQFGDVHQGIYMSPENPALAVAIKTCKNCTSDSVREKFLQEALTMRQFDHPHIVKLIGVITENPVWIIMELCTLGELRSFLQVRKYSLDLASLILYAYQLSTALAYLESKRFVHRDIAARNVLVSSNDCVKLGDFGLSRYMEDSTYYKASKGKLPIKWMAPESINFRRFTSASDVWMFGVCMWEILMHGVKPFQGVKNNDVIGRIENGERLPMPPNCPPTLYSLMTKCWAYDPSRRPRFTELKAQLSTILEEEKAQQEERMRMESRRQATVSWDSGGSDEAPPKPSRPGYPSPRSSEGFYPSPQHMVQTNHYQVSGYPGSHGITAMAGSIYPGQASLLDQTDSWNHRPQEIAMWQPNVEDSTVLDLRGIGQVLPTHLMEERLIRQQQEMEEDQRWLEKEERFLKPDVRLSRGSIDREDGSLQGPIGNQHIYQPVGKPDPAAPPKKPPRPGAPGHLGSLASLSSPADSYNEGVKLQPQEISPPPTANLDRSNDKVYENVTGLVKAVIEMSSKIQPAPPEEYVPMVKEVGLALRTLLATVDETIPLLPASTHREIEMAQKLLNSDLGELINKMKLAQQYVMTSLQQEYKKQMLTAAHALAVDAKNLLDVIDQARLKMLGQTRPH
# Procedure: as §1, with “(siFN1). At 24 h after transfection, cells were detached, reseeded, and incubated for 12 h for cell attachment.” for “(siFN1).”
# Tissues or cells were homogenized in RIPA buffer for 20 min on ice. Protein concentrations were determined based on bicinchoninic acid (BCA) assay using the BCA Protein Assay kit (Thermo Fisher Scientific, Waltham, MA, USA). […]
# HCT116 cells [4] = test: Wound healing assay (migration), HCT116 cells overexpressing dysadherin; format: cell-based, human; settings: VS-4718 1 μM, 48-h incubation in serum-free media
# Procedure: as §1, with “(siFN1). At 24 h after transfection, cells were detached, reseeded, and incubated for 12 h for cell attachment.” for “(siFN1).”
# Cells were seeded in culture inserts (Ibidi, GmbH, Martinsried, Germany). […] The wound area at time zero or the endpoint was measured using Image-Pro Premier 9.2. The area of wound closure was calculated as a percentage of the initial wound area. […]
# wild-type HCT116 cells = test: Cell growth by MTT assay, wild-type HCT116 cells; format: cell-based, human; settings: VS-4718 3 μM, 36 h
# Procedure: as §2
# fibronectin [5] = test: Pull-down assay of His-tagged synthesized peptides with purified fibronectin; format: binding; settings: His-tagged peptide 20 μg, purified fibronectin 0.5 μg, Ni-NTA agarose beads, Coomassie staining
# From the text: FIG. 13B illustrates pull-down assay using purified fibronectin and purified His-tagged synthesized peptides to determine the specific sequence with fibronectin-binding activity.
# The coding sequences of wild-type or mutant forms of dysadherin were synthesized and cloned into pET151/DTOPO vector by Thermo Fisher Scientific. OE of His-tagged dysadherin was achieved using E. coli grown in Luria-Bertani (LB) broth medium, supplemented with ampicillin. Isopropyl β-D-1-thiogalactopyranoside (IPTG, 0.5 mM) was added into the LB broth medium to induce the expression of the protein of interest, and the mixture was incubated for 5 h at 37° C. The cells were then lysed using RIPA buffer and purified using a Ni-NTA column (R90101, Thermo Fisher Scientific). The concentrated purified protein was measured using the BCA Protein Assay kit (Thermo Fisher Scientific). […] Presence of His-tagged dysadherin and fibronectin proteins were determined by immunoblot analysis using anti-His rabbit monoclonal antibody (#12698, Cell Signaling Technology) and anti-fibronectin rabbit polyclonal antibody (ab2413, Abcam, Cambridge, MA, USA). […] The purity of each peptide was determined to be over 95% by LC-MS. […] The presence of His-tagged dysadherin, dysadherin peptides, and fibronectin was determined by staining with Coomassie Brilliant Blue.
# SW480 cells = test: Cell viability by MTT assay, SW480 cells; format: cell-based, human; settings: MTT assay at 48 hours after peptide treatment
# Procedure: (§3) FIGS. 13C-13D illustrate cell viability were measured by an MTT assay at 48 hours after the treatment of annotated peptide in SW480 cells with and without KO of dysadherin.
# (§4) Cells were seeded in 6-well or 96-well plates and incubated for various time points. The numbers of viable cells were measured with an automated cell counter (Countess II, ThermoFisher Scientific, Waltham, MA, USA) or measured by staining with thiazolyl blue tetrazolium bromide (MTT, Sigma-Aldrich, St. Louis, MO, USA), and the absorbance was measured using a microplate spectrophotometer (Bio-Tek Instruments Inc., Winooski, VT, USA).
# [6] = tested on: dysadherin KO SW480 cells; test: Cell viability by MTT assay, dysadherin KO SW480 cells; format: cell-based, human; settings: MTT assay at 48 hours after peptide treatment
# Procedure: as §3
# A dysadherin-KO (FXYD5^−/−) SW480 cell line was generated by Transomic Technologies (Huntsville, AL, USA). Specific gRNA targeting different regions of the human FXYD5 gene was designed and cloned into the pCLIPAll (EFS-Puro) expression vector. SW480 cells were infected with lentiviral particles and selected with puromycin for 1 week. Dilution cloning was performed to obtain different monoclonal cell populations. […] For establishment of the dysadherin-OE cell line, HCT116 cells were transfected with dysadherin expression vector (pcDNA-L3HSV) and selected with G418 for 1 week. Dilution cloning was performed and OE of the dysadherin gene was confirmed by RT-qPCR and immunoblot analysis. […]
# as §4
# fibronectin [7] = target: T2, fibronectin (Homo sapiens, UniProt P02751); test: Pull-down assay of purified His-tagged dysadherin proteins with purified fibronectin protein; format: binding; settings: purified His-tagged dysadherin proteins 1 μg, purified fibronectin 0.5 μg, anti-His antibody, immunoblot
# T2 construct: purchased Sigma Aldrich
# T2 sequence (P02751 32-2477, species assumed): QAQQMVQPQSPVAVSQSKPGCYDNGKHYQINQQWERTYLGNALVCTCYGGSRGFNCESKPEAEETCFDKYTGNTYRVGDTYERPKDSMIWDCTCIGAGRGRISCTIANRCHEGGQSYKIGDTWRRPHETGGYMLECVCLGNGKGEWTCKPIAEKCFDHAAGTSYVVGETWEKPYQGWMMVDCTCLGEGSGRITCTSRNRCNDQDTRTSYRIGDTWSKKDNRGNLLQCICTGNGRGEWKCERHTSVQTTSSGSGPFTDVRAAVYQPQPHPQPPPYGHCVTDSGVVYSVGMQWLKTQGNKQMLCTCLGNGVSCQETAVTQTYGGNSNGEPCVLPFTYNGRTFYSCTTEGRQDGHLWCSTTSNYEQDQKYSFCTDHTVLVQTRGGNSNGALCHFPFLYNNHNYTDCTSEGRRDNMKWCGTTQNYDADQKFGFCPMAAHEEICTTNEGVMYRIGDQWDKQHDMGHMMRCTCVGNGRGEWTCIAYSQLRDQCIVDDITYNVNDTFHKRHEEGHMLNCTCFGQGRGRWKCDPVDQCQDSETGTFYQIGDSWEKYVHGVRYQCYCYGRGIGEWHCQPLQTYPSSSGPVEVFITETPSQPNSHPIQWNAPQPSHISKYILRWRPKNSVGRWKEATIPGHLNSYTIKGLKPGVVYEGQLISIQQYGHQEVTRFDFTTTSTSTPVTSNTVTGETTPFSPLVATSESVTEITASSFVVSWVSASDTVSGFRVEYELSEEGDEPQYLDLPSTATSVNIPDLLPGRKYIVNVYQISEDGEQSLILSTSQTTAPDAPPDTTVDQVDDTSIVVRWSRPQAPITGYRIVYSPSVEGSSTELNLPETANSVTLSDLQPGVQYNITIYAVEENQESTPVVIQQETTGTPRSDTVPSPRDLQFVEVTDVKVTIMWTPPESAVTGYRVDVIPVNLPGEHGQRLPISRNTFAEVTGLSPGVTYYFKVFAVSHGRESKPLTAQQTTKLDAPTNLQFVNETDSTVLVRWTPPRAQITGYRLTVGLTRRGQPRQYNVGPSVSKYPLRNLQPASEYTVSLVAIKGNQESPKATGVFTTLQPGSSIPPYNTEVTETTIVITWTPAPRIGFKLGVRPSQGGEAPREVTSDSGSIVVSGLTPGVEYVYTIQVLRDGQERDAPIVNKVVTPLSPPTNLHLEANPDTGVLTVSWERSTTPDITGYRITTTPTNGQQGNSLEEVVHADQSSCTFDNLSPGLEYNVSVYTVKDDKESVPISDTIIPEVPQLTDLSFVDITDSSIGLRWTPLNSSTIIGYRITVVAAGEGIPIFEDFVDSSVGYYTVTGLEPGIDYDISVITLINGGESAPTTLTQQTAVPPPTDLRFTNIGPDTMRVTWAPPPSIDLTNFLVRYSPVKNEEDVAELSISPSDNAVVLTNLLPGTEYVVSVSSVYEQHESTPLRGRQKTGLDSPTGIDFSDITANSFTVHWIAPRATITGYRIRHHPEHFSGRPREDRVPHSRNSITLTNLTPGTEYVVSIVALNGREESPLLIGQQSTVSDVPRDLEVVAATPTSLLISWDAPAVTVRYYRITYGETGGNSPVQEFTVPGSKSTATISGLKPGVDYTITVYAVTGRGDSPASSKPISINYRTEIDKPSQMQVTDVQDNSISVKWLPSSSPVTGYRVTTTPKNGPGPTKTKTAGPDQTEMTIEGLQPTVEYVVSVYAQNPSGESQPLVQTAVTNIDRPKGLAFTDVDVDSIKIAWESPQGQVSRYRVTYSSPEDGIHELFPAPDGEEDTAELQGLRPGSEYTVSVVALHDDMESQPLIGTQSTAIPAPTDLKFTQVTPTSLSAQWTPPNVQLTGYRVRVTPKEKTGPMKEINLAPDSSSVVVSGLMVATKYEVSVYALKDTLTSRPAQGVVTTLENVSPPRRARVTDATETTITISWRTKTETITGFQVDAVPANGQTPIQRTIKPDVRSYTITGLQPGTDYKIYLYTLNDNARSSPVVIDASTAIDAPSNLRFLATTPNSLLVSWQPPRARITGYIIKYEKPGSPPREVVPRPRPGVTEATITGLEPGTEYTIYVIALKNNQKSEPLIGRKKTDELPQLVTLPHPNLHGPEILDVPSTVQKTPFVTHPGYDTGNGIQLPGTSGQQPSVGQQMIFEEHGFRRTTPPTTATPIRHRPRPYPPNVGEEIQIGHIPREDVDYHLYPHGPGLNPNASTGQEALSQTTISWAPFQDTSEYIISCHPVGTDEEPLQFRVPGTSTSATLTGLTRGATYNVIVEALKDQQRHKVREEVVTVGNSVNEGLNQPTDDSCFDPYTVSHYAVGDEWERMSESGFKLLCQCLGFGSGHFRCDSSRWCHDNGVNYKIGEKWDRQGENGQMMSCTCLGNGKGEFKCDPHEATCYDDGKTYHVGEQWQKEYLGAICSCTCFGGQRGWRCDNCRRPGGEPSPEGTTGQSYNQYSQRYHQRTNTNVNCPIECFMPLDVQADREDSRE
# From the text: FIGS. […] illustrate the extracellular domain of dysadherin directly binds fibronectin. (FIG. 12A) Co-IP with anti-dysadherin antibody (M53) and subsequent immunoblot analyses validate the binding of dysadherin to endogenous fibronectin in CRC cells. (FIG. 12B) Co-IP with M53 and subsequent immunoblot analyses confirm that the quantity of dysadherin-bound fibronectin is decreased by dysadherin KO but increased by dysadherin OE. (FIG. 12C) Whole-protein lysates and membrane fractions were extracted from cells at the indicated time points. Culture media were collected and applied to dot blot assays to compare the quantities of secreted fibronectin. […]
# The coding sequences of wild-type or mutant forms of dysadherin were synthesized and cloned into pET151/DTOPO vector by Thermo Fisher Scientific. […] The concentrated purified protein was measured using the BCA Protein Assay kit (Thermo Fisher Scientific). […] Presence of His-tagged dysadherin and fibronectin proteins were determined by immunoblot analysis using anti-His rabbit monoclonal antibody (#12698, Cell Signaling Technology) and anti-fibronectin rabbit polyclonal antibody (ab2413, Abcam, Cambridge, MA, USA). […] The purity of each peptide was determined to be over 95% by LC-MS. […] The presence of His-tagged dysadherin, dysadherin peptides, and fibronectin was determined by staining with Coomassie Brilliant Blue.
molecule,measurement,setting,value
CNC(=O)c1ccccc1Nc1cc(Nc2ccc(N3CCOCC3)cc2OC)ncc1C(F)(F)F [VS-4718],dysadherin-induced increase in CRC invasion,HCT116 cells [1],attenuated
same,dysadherin-induced CRC growth,[2],diminished dysadherin-induced CRC growth
same,dysadherin-induced increase in CRC survival,HCT116 cells [3],attenuated
same,fibronectin-induced FAK activation,"FAK; cells on fibronectin-coated plates, VS-4718 at 1 or 3 μM, 4 h",inhibitory effects
same,basal p-FAK levels,"FAK; treatment with VS-4718, FIG. 16C",diminished basal p-FAK levels
same,dysadherin-induced increase in CRC migration,HCT116 cells [4],attenuated
same,growth of wild-type HCT116 cells,wild-type HCT116 cells,attenuated the growth of wild-type HCT116 cells
KAAHPTDDTTTLSERPSPST (listed as Homo sapiens) [N #4],fibronectin-binding activity,fibronectin [5],displayed fibronectin-binding activity
same,cytotoxicity against SW480 cells,SW480 cells,selective cytotoxicity
same,effect against dysadherin KO SW480 cells,[6],limited effect
PADETPQPQTQTQQLEGTDGP (listed as Homo sapiens) [N #3],fibronectin-binding activity,fibronectin [5],displayed fibronectin-binding activity
same,cytotoxicity against SW480 cells,SW480 cells,selective cytotoxicity
same,effect against dysadherin KO SW480 cells,[6],limited effect
B1,binding to fibronectin,fibronectin [7],direct binding
